Assay results taken from US5461046A, “1-,2-,3-,4-,5-,6-,7-,8-, and/or 9-substituted dibenzoxazepine compounds, pharmaceutical compositions and methods for treating pain” (G. D. Searle & Co., priority 1993, dated 1995).
Read-outs that look alike come from different tables or passages of the source.

What was measured:
[1] = tested on: phenylbenzoquinone (PBQ)-induced writhing in mice; assay: Writhing Assay (phenylbenzoquinone-induced writhing, analgesia); type: in vivo, Charles River male albino mice; details: for responders at 30 mg/kg: Mus musculus, 25 min, 25 min before PBQ i.p., number of mice out of ten with analgesia
From the text: The Writhing Assay is one of the most widely-used experimental procedures for measuring the analgesic activity of different narcotic and nonnarcotic analgesic agents, and involves the continuous, chemically-induced pain of visceral origin to an animal, such as a mouse or rat. [Gyires et al., Arch. int. Pharmacodyn, 267, 131-140 (1984); C. Vander Wende et al., Fed. Proc., 15, 494 (1956); Koster et al., Fed. Proc., 18, 412 (1959); and Witken et al., J. Pharmacol. exp. Ther., 133, 400-408 (1961).] Chemicals which may be used to induce this pain include phenylbenzoquinone (PBQ) and acetic acid. As a result of the chemical irritation to the animal, a characteristic stretching and writhing of the animal (dorsiflexion of the animal's back, extension of its hindlimbs and the strong contraction of its abdominal musculature) will generally occur. […] Drugs which reduce the number of writhes of the animal appear to restore the normal nociceptive threshold of the animal.
Charles River male albino mice, weighing 20 to 30 grams were used in this assay.
Twenty-five minutes after subcutaneous or intragastric administration to ten mice of 30 mg per kilogram of body weight of a compound of the present invention ("test compound"), […] per 10 g of body weight of a 0.025% w/v solution of PBQ was injected intraperitoneally into each mouse. Ten mice which were given saline in place of a test compound of the invention were used as a control group.
Five minutes later, each mouse was individually placed into a glass beaker for observation, and the number of writhes occurring during the following ten-minute period was counted.
A test compound was considered to have produced analgesia in a mouse if, in accordance with the conditions set forth above, and under the test criteria employed for this assay, after the administration of 30 mg per kilogram of body weight of a compound of the present invention to the mouse, the number of writhes elicited by a mouse injected with PBQ was equal to, or less than, one-half the median number of writhes recorded for the saline-treated control group of mice that day, as described by Taber in "Predictive Value of Analgesic Assays in Mice and Rats," Advances in Biochemical Psychopharmacology, 8, 191 (1974).
The results for the particular compounds of the present invention analyzed in this assay, and discussed in the examples identified below which correspond thereto, are presented in Table 2 hereinbelow under the heading "WRITHING ASSAY." The fractions indicate the number of mice out of ten in which a test compound produced analgesia.

[2] = biological target: T1, prostaglandin E2-induced contractions of segments of guinea pig ileum (Cavia porcellus, UniProt A0A286XHJ6); assay: Prostaglandin (PGE) Antagonism Assay in guinea pig ileum; details: initial concentration 3 micromolar; estimated pA2 (slope -1.0 assumed) or Schild plot pA2
T1 construct: The ilea were then quickly removed from the guinea pigs; from tissue; host or cells: ileum segments of male albino guinea pigs
T1 sequence (A0A286XHJ6 1-405): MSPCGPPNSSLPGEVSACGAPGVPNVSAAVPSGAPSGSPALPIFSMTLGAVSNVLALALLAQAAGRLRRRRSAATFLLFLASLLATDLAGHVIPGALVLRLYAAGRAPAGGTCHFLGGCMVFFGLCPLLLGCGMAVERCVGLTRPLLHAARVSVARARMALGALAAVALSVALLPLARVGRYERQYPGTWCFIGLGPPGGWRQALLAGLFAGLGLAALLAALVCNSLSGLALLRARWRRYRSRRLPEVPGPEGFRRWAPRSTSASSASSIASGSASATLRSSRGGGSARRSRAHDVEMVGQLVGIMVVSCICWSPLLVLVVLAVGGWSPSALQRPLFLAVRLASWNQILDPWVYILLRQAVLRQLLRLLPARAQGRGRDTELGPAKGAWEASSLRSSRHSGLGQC
Method: In order to determine the effectiveness of several of the compounds of the present invention ("test compounds") as prostaglandin E2 antagonists,a prostaglandin antagonism assay was conducted, as described below, to determine the ability of these compounds to inhibit prostaglandin E2 -induced contractions of segments of guinea pig ileum.
Male albino guinea pigs weighing 200 to 500 grams were sacrificed by cervical dislocation. The ilea were then quickly removed from the guinea pigs and placed in a modified Tyrode solution, a solution which is known to those skilled in the art, containing one-half of the usual amount of magnesium ions.
Segments of ileum about 2 cm long were then cut and mounted in a 10-mL tissue bath containing the modified Tyrode solution. The solution was maintained at 37° C. and aerated with a gaseous mixture of 95% oxygen and 5% carbon dioxide. Data for a control prostaglandin E2 dose response curve plotting concentration of prostaglandin E2 versus the intensity of contractions, detected isotonically, was then obtained by experimentally adjusting the dose of the prostaglandin E2 being injected into the tissue bath, in a manner known by those of skill in the art.
Solutions or suspensions containing an initial concentration (3 micromolar) of a test compound in modified Tyrode solution ("test solutions/suspensions") were then separately substituted for the control bath solution. Each test solution/suspension was then kept in constant contact with the ileum tissue, except for brief periods to drain the bath in preparation for rinsing with fresh test solution/suspension. A second prostaglandin E2 dose response curve was then generated for prostaglandin E2 in the presence of a test compound.
A dose ratio of EC50 doses was then calculated from the results of each test in a manner known by those of skill in the art. A test compound was determined to be "active" if the initial concentration used yielded at least a two-fold shift (dose ratio greater than or equal to 2) in the dose response curve for prostaglandin E2.
The compounds of the present invention which were tested in this assay, and for which results are presented in Table 2, correspond to the particular examples specified in Table 2.

[3] = tested on: stimulant actions of prostaglandins on isolated smooth muscle preparations; details: cited from earlier work
[4] = tested on: micturition reflex in rats; details: urethane-anesthetized rats; cited from earlier work
[5] = ip, 30 mg per kg i.g., read-out: WRITHING ASSAY Number Out of Ten I.G. (converted)
[6] = sc, 30 mg per kg s.c., read-out: WRITHING ASSAY Number Out of Ten S.C.

Kb [2] [nM]	SMILES	responders at 30 mg/kg [1, 5] [%]	responders at 30 mg/kg [1, 6] [%]	potency in the Writhing Assay (in words) ([1]; 30 mg per kg s.c. or i.g.)	inhibition of stimulant actions of prostaglandins [3]	bladder capacity [4]	voiding efficiency of micturition [4]
2090	CCS(=O)(=O)CCC(=O)NNC(=O)N1Cc2ccccc2Oc2ccc(C)cc21 [Example 17, 8-methyldibenz[b,f][1,4]oxazepine-10(11H)-carboxylic acid, 2-[3-(ethylsulfonyl)-1-oxopropyl]hydrazide]	22.2	20	–	–	–	–
2690	CCS(=O)(=O)CCC(=O)NNC(=O)N1Cc2cccc(Cl)c2Oc2ccccc21 [Example 18, 4-chlorodibenz[b,f][1,4]oxazepine-10(11H)-carboxylic acid, 2-[3-(ethylsulfonyl)-1-oxopropyl]hydrazide]	40	40	–	–	–	–
2570	CCS(=O)(=O)CCC(=O)NNC(=O)N1Cc2ccccc2Oc2ccc(O)cc21 [Example 19, 8-hydroxydibenz[b,f][1,4]oxazepine-10(11H)-carboxylic acid, 2-[3-(ethylsulfonyl)-1-oxopropyl]hydrazide]	40	30	–	–	–	–
1260	CCS(=O)(=O)CCC(=O)NNC(=O)N1Cc2ccccc2Oc2ccc(C(F)(F)F)cc21 [Example 20, 8-(trifluoromethyl)dibenz[b,f][1,4]oxazepine-10(11H)-carboxylic acid, 2-[3-(ethylsulfonyl)-1-oxopropyl]hydrazide]	60	60	most potent compound of the invention tested in this assay	–	–	–
1050	CCS(=O)(=O)CCC(=O)NNC(=O)N1Cc2ccccc2Oc2ccccc21 [Example 21, Dibenz[b,f][1,4]oxazepine-10(11H)-carboxylic acid, 2-[3-(ethylsulfonyl)-1-oxopropyl]hydrazide]	50	10	–	–	–	–
–	O=C(Cc1ccccc1)NNC(=O)N1Cc2ccccc2Oc2ccc(Cl)cc21 [SC-18637]	–	–	–	inhibit the stimulant actions of prostaglandins on isolated smooth muscle preparations	–	–
–	CC(=O)NNC(=O)N1Cc2ccccc2Oc2ccc(Cl)cc21 [SC-19220]	–	–	–	inhibit the stimulant actions of prostaglandins on isolated smooth muscle preparations	increased	reduced
